From ChEMBL document CHEMBL1201862, “PubChem BioAssay data set” (2004)
Activity calls are given as the source filed them.

Key:
[1] = test system: HEK293; experiment: NOD2 signaling inhibitors in MDP-stimulated cells, cell-based, uHTS, luminescence (AID 2001); type: functional; conditions: Homo sapiens
[2] = test system: HEK293; experiment: inhibition of NOD1-driven NF-kB reporter – cell-based, luminescence, uHTS, primary screen (AID 1578); type: functional; conditions: Homo sapiens
[3] = target: Nucleotide-binding oligomerization domain-containing protein 2 (Homo sapiens, UniProt Q9HC29); experiment: inhibition of NOD2-driven NF-kB reporter – cell-based, luminescence, uHTS, HEK293 (AID 1566); type: functional
[4] = target: T1, Microphthalmia-associated transcription factor (Homo sapiens, UniProt O75030); experiment: reducers of TRPM1 reporter luminescence, concentration series – cell-based, SK-MEL-5, cherry-picked, set 3, MITF inhibitor project, dose response (AID 493073); type: functional;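 note: SK-MEL-5 melanoma cells with luciferase driven by the MITF target TRPM1 promoter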
T1 sequence (O75030 whole entry): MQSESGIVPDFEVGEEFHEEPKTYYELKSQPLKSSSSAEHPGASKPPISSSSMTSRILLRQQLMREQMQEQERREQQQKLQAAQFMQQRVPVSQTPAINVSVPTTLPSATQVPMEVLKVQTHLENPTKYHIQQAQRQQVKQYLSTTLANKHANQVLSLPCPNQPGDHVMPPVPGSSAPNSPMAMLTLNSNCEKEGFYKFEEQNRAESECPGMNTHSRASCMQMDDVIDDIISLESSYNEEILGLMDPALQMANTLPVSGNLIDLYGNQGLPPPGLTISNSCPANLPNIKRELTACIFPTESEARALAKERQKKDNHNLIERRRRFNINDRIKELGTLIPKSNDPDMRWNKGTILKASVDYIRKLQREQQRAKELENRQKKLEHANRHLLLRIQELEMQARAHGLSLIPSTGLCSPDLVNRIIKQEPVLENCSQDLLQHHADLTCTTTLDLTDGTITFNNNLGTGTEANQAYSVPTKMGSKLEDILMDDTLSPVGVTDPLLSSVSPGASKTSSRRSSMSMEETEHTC

[5] = test system: HEK293; experiment: cells; type: functional, cell-based; conditions: Homo sapiens
[6] = test system: HEK293; experiment: cells; type: functional, cell-based; conditions: Homo sapiens; remark: listed apart in the source
[7] = target: T2, Heat shock factor protein 1 (Mus musculus, UniProt P38532); experiment: decrease of HSF1-responsive luciferase luminescence – cell-based, NIH3T3, dose retest, confirmation (AID 2382); type: functional;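 note: NIH3T3 fibroblasts with HSF1-driven luciferase reporter stressed by proteasome inhibitor MG132; luminescence from HSF1-driven luciferase expression after 8 hours of MG132 stress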
T2 sequence (P38532 whole entry): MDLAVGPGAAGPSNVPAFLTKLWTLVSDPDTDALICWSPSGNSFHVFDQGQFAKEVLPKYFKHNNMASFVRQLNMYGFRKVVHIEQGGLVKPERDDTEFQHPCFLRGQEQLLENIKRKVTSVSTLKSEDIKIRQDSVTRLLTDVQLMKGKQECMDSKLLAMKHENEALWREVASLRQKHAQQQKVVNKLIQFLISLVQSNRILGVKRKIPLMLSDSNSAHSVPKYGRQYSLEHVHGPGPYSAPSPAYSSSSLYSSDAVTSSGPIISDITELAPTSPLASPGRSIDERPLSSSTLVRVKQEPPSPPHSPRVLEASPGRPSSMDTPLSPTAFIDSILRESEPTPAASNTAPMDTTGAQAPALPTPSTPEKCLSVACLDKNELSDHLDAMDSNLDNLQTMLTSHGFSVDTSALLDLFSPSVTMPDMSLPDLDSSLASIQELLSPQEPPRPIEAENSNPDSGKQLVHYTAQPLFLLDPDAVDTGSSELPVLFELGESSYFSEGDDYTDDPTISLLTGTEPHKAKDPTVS

[8] = test system: HEK293; experiment: cells; type: functional, cell-based; conditions: Homo sapiens; remark: listed apart in the source
[9] = target: Glucose-6-phosphate 1-dehydrogenase (Homo sapiens, UniProt P11413); experiment: inhibition of Homo sapiens G6PD, dose series – biochemical, fluorescence, selectivity assay for P. falciparum G6PD inhibitor project, dose response (AID 504792); type: functional
[10] = target: Genome polyprotein (dengue virus type 2, UniProt P29990); experiment: flavivirus cap methylation enzyme inhibition – biochemical, confirmation dose response, primary screen (AID 588689); type: functional
[11] = test system: Vero; experiment: viability of Vero cells under compound – cytotoxicity control for flavivirus capping enzyme inhibitors (AID 588742); type: functional; conditions: Chlorocebus sabaeus
[12] = target: CAAX prenyl protease 2 (Homo sapiens, UniProt Q9Y256); experiment: inhibition of Ras-converting CAAX protease Rce1 – biochemical, yeast membranes, quenched-peptide fluorescence, cherry-pick, dose response (AID 588849)
[13] = target: Trypsin (Sus scrofa, UniProt P00761); experiment: trypsin protease activity blockade – biochemical, quenched peptide fluorescence, cherry-pick, selectivity assay for Rce1 protease inhibitor project, dose response (AID 488789)
[14] = target: CAAX prenyl protease 2 (Saccharomyces cerevisiae S288c, UniProt Q03530); type: biochemical
[15] = target: T3, Serine/threonine-protein phosphatase (Candida dubliniensis (strain CD36 / CBS 7987 / NCPF 3949 / NRRLY-17841) (Yeast), UniProt B9W6M3); experiment: Fluorescence Cell-Based Secondary Assay to Identify Inhibitors of Calcineurin. [Related pubchem assays (depositor defined):AID1979, AID2007]; type: functional
T3 sequence (B9W6M3 whole entry): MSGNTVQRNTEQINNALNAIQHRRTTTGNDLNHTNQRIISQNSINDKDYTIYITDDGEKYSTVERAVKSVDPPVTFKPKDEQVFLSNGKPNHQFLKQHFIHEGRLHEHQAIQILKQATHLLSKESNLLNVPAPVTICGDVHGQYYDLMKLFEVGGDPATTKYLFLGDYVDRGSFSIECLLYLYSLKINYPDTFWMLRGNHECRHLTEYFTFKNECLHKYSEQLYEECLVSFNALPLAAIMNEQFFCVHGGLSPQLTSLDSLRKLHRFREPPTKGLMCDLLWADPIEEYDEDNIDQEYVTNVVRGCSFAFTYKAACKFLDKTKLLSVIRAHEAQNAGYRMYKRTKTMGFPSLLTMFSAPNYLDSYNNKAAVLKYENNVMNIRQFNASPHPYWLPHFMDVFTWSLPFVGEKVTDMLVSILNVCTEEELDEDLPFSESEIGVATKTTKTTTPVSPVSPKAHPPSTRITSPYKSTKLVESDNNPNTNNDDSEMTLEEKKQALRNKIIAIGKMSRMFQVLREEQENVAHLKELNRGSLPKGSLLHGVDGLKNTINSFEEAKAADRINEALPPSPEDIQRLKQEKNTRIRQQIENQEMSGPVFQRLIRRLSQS

[16] = Trypanosoma cruzi growth suppression in host cells – NIH3T3 host cells, beta-gal luminescence, confirmation (AID 2044); type: functional, cell-based;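 note: intracellular parasites grown in NIH/3T3 mouse fibroblasts as host cells; luminescent beta-galactosidase reporter signal from transgenic T. cruzi replicating inside host cells; inhibitors lower the luminescence signal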
[17] = target: G-protein coupled receptor 35 (Homo sapiens, UniProt Q9HC97); experiment: inhibition of zaprinast-stimulated GPR35 beta-arrestin translocation – imaging, U2OS, beta-arrestin-GFP, zaprinast agonist, primary screen (AID 2058); type: functional;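 note: antagonist potency meaning inhibition of agonist-induced arrestin redistribution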
[18] = NIH3T3 cell viability loss – ATP luminescence, mouse fibroblasts, counter-screen, dose response (AID 2010); type: functional, cell-based;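 note: cells exposed to compound for about 90 hours before reading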
[19] = NIH-3T3 fibroblast cytotoxicity, dose response, cytotoxicity control, cell-based, fluorescence, Alamar Blue, secondary assay (AID 2327); type: functional;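 note: NIH-3T3 mouse fibroblasts cultured with fluconazole at 8 µg/mL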
[20] = fluconazole-exposed Candida albicans growth modulators – fluorescence, retest, confirmation (AID 2467); type: functional, cell-based
[21] = target: G-protein coupled receptor 55 (Homo sapiens, UniProt Q9Y2T6); experiment: blockers of GPR55 signalling, imaged – imaging, image-based, counter-screen for GPR35 antagonist project, SAR follow-up (AID 2397); type: functional
[22] = target: FAD-linked sulfhydryl oxidase ALR (Homo sapiens, UniProt P55789); experiment: ALR-catalysed DTT oxidation blockers – biochemical, H2O2 detection, luminescence, cherry-pick, dose response (AID 493248)
[23] = restored growth of temperature-sensitive Burl-1 yeast – whole organism, S. cerevisiae, Burl-1 ts mutant, luminescence, counter-screen for SUMOylation pathway inhibitor project, dose response (AID 463199); type: functional

Trypsin, sequence (P00761 whole entry): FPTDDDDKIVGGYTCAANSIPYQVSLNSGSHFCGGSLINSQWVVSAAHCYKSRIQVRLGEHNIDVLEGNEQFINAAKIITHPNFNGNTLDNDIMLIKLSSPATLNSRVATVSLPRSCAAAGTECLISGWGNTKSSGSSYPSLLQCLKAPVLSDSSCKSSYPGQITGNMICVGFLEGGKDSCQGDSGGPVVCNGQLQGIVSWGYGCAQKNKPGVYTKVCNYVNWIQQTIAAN
G-protein coupled receptor 35, sequence (Q9HC97 whole entry): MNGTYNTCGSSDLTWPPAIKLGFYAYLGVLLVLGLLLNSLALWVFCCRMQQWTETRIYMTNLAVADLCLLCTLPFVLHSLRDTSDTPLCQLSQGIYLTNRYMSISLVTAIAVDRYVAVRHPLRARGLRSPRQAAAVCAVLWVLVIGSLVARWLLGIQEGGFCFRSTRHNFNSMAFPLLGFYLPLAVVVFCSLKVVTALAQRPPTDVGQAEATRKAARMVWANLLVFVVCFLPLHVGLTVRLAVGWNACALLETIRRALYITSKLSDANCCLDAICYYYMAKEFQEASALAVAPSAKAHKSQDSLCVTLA
G-protein coupled receptor 55, sequence (Q9Y2T6 whole entry): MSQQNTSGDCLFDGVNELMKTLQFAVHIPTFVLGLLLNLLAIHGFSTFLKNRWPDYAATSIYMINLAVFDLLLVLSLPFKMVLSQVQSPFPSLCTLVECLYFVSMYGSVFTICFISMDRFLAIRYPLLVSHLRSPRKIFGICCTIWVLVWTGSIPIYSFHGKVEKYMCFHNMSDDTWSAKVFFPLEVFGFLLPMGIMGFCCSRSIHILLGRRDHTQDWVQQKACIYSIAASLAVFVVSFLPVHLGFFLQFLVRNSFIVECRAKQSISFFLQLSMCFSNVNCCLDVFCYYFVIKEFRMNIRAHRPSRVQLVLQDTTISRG
Nucleotide-binding oligomerization domain-containing protein 2, sequence (Q9HC29 whole entry, the tested form may be a part): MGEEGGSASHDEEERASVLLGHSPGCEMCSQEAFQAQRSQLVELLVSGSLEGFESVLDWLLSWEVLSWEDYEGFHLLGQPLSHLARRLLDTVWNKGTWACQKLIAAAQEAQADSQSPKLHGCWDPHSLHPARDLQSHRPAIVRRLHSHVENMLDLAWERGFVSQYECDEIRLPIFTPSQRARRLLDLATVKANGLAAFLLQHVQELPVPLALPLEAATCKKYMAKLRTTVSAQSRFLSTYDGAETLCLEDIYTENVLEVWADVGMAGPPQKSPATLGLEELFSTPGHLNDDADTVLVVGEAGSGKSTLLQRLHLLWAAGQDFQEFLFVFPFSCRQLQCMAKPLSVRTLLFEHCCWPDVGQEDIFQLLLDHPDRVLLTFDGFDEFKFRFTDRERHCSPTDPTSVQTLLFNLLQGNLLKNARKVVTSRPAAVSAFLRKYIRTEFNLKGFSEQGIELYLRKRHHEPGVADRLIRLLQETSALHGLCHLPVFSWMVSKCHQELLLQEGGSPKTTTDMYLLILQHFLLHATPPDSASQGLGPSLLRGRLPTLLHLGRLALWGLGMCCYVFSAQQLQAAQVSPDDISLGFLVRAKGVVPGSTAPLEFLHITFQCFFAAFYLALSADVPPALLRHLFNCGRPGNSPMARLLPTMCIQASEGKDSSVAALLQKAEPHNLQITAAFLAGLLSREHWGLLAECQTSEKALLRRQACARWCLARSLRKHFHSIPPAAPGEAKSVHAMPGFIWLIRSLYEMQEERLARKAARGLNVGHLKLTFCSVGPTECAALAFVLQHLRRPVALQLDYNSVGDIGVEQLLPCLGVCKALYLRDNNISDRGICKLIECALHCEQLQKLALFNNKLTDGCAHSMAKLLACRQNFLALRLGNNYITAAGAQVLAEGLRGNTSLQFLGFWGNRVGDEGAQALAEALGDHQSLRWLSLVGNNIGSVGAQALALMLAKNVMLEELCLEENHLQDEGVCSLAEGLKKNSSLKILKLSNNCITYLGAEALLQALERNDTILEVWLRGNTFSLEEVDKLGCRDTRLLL
CAAX prenyl protease 2 (Homo sapiens, UniProt Q9Y256), sequence (Q9Y256 whole entry): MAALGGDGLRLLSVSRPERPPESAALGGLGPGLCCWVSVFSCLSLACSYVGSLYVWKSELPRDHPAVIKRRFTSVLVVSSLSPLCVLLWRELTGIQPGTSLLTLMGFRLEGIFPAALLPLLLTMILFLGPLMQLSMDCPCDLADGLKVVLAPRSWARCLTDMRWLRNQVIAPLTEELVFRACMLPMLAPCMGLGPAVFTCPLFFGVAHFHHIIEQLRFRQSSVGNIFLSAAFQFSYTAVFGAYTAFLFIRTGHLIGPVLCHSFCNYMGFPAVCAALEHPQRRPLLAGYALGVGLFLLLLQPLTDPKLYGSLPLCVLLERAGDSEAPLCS
Glucose-6-phosphate 1-dehydrogenase, sequence (P11413 whole entry): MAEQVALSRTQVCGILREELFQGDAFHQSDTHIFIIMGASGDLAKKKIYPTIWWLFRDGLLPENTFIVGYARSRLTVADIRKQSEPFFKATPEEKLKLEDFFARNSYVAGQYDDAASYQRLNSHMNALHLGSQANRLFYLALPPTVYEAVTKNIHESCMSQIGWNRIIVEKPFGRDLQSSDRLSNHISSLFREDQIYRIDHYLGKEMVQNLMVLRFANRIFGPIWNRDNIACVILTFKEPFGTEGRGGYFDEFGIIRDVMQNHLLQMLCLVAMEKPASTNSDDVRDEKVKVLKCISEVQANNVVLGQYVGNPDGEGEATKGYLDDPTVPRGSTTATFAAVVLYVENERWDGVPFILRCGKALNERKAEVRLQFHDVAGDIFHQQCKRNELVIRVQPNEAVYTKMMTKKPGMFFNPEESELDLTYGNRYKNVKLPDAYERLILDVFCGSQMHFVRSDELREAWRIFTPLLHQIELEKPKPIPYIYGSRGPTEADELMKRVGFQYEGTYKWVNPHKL
CAAX prenyl protease 2 (Saccharomyces cerevisiae S288c, UniProt Q03530), sequence (Q03530 whole entry): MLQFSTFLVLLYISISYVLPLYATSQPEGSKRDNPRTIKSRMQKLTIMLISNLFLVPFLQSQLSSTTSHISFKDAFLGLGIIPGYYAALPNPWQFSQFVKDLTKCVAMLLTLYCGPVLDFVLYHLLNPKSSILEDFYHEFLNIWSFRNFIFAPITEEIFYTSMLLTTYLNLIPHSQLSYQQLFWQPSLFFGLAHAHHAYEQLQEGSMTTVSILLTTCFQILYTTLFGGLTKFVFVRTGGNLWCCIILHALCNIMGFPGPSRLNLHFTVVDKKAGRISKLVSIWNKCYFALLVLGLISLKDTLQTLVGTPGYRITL
Genome polyprotein, sequence (P29990 2492-3391 limits assumed): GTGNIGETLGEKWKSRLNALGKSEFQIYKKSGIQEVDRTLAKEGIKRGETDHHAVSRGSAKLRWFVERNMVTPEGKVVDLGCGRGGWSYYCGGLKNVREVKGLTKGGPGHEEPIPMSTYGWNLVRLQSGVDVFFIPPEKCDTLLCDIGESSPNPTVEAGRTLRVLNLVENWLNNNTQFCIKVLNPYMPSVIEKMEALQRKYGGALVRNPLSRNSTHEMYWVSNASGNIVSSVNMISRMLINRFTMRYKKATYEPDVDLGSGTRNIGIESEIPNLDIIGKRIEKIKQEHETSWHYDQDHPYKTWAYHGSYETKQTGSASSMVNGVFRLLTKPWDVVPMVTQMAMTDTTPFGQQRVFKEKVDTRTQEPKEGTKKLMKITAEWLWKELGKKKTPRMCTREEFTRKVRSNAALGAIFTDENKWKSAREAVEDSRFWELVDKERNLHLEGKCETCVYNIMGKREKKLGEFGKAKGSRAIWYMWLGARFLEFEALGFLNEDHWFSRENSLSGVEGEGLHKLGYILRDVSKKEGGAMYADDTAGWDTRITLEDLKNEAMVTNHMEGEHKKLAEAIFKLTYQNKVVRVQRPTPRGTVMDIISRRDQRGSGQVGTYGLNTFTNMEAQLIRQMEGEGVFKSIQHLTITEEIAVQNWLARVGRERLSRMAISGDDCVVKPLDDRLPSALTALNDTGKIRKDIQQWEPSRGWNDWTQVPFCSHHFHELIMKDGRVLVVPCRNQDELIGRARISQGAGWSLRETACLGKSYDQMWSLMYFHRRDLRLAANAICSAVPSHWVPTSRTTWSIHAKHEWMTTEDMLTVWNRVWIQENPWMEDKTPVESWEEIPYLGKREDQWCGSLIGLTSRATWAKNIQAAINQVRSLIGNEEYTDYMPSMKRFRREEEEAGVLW
FAD-linked sulfhydryl oxidase ALR, sequence (P55789 whole entry): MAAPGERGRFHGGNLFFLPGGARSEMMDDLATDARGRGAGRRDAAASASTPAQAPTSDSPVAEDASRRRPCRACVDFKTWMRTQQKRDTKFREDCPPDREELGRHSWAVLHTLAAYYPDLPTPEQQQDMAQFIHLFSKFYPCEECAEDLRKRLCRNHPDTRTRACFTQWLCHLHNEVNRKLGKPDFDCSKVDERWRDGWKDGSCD

Question: What does the source list for O=C(CCl)Nc1ccc(Sc2ccc(NC(=O)CCl)cc2)cc1?
Answer: IC50 [1]: 2.71 µM (active); EC50 [2]: 10.1 µM (active); EC50 [3]: 18.8 µM (active); AC50 [4]: 5.98 µM (active); IC50 [5]: > 20 µM (inactive); IC50 [6]: 10.2 µM (active); EC50 [7]: 3.68 µM (active); IC50 [8]: 1.62 µM (active)

Question: With COc1cc(CN2CCCC(C(=O)c3ccc4c5c(cccc35)CC4)C2)cc(OC)c1O (stereo not drawn) as the compound, how does the IC50 [9] read?
Answer: 24.3 µM (inactive)

Question: And the IC50 [10]?
Answer: 97.7 µM (active)

Question: What about the CC50 [11] of the same compound?
Answer: > 40 µM (active)

Question: Which AC50 [12] does the source give for COC(=O)C1=CNC=C(C(=O)OC)C1c1cccc2ccccc12 here?
Answer: 7.98 µM (active)

Question: What about the AC50 [13] of the same compound?
Answer: 80.3 µM (active)

Question: What about the AC50 [14] of the same compound?
Answer: 26.9 µM (active)

Question: For O=C1/C(=C\c2ccccc2)CCc2c1[nH]c1ccccc21, which EC50 [15] is on record?
Answer: > 285 µM (inactive)

Question: What does the source list for Cc1ccc2[nH]c(C)c(/C=C/c3cc[n+](C)cc3)c2c1?
Answer: EC50 [16]: 0.725 µM (active); IC50 [17]: 1.62 µM (active); EC50 [18]: > 30 µM (not active); EC50 [19]: > 150 µM (inactive); EC50 [20]: 1.45 µM (active); IC50 [21]: 1.57 µM (active)

Question: Which AC50 [22] does the source give for O=C(O)CCc1ccc(-c2cccs2)n1NC(=O)c1cccs1 here?
Answer: 1.55 µM (active)

Question: And the AC50 [23]?
Answer: 183 µM (active)
